# How the values were obtained:
# ec302 TEM-10 [1] = assay: Tigemonam potentiation (MPC@4), strain ec302 TEM-10; type: cell-based; conditions: strain ec302 TEM-10; tigemonam alone
# KP1005 CTX-M-14 [2] = assay: Tigemonam potentiation (MPC@4), strain KP1005 CTX-M-14
# EC1010 CMY-6 [3] = assay: Tigemonam potentiation (MPC@4), strain EC1010 CMY-6; type: cell-based; conditions: strain EC1010 CMY-6; tigemonam alone
# ECL1002 [4] = assay: Tigemonam potentiation (MPC@4), strain ECL1002; type: cell-based; conditions: strain ECL1002; tigemonam alone
# ec308 SHV-5 [5] = assay: Tigemonam potentiation (MPC@4), strain ec308 SHV-5; type: cell-based; conditions: strain ec308 SHV-5; tigemonam alone
# KP1010 SHV-12 [6] = assay: Tigemonam potentiation (MPC@4), strain KP1010 SHV-12; conditions: strain KP1010 SHV-12; tigemonam alone
# KP1009 CTX-M-15 [7] = assay: Tigemonam potentiation (MPC@4), strain KP1009 CTX-M-15
# ec302 TEM-10 [8] = assay: Aztreonam potentiation (MPC@4), strain ec302 TEM-10
# KP1010 SHV-12 [9] = assay: Aztreonam potentiation (MPC@4), strain KP1010 SHV-12
# KP1005 CTX-M-14 [10] = assay: Aztreonam potentiation (MPC@4), strain KP1005 CTX-M-14; conditions: read-out: Aztreonam MIC
# ec308 SHV-5 [11] = assay: Aztreonam potentiation (MPC@4), strain ec308 SHV-5
# KP1004 KPC-2 [12] = assay: Aztreonam potentiation (MPC@4), strain KP1004 KPC-2
# EC1010 CMY-6 [13] = assay: Aztreonam potentiation (MPC@4), strain EC1010 CMY-6
# KP1009 CTX-M-15 [14] = assay: Aztreonam potentiation (MPC@4), strain KP1009 CTX-M-15
# PAM1032/KPC-2 = assay: Biapenem potentiation MPC64 in PAM1032/KPC-2 (efflux proficient, overexpresses MexAB-OprM); type: cell-based, Pseudomonas aeruginosa
# Protocol: (§1) Efflux of BLIs from Pseudomonas aeruginosa by the MexAB-OprM efflux pump was also evaluated. The plasmid expressing the gene encoding KPC-2 was introduced into two strains of P. aeruginosa, PAM1032 and PAM 1154 that overexpressed or lacked MexAB-OprM, respectively. […] Potency of BLIs to potentiate biapenem in these strains was determined.
# AB1053 OXA-72 = assay: Meropenem potentiation (MPC@8), strain AB1053 OXA-72; type: cell-based, Acinetobacter baumannii; conditions: minimum BLI concentration inhibiting growth with meropenem 8 μg/mL; tested up to 20 μg/mL
# ECL1002 [15] = assay: Aztreonam potentiation (MPC@4), strain ECL1002; conditions: minimum BLI concentration inhibiting growth with aztreonam 4 μg/mL; tested up to 40 μg/mL
# KP1004 KPC-2 [16] = assay: Biapenem potentiation (MPC@1), strain KP1004 KPC-2; type: cell-based; conditions: minimum BLI concentration inhibiting growth with biapenem 1 μg/mL; tested up to 40 μg/mL
# Protocol: (§2) Biapenem was present in the test medium at 1 μg/mL. […] Table 3 summarizes the BLI potency of biapenem potentiation (MPC@1) for two strains overexpressing class A (KPC) and class D (OXA-48) carbapenemases. Biapenem MIC for each strain is also shown.
# PAM1154/KPC-2 = assay: Biapenem potentiation MPC64 in PAM1154/KPC-2 (efflux deficient, lacks MexAB-OprM); type: cell-based, Pseudomonas aeruginosa
# Protocol: as §1
# biochemical = type: biochemical
# [17] = molecular target: purified class A, C and D enzymes (β-lactamases) (Enterobacter cloacae, UniProt P05364); assay: biochemical; type: biochemical
# [18] = molecular target: T1, purified class A, C and D enzymes (β-lactamases) (UniProt P0AD64, L31Q/G234S/E235K, species not given); assay: biochemical; type: biochemical; conditions: read-out: Ki (SHV-12, NCF); purified SHV-12; nitrocefin (NCF) as reporter substrate
# T1 construct: Ki (SHV-12, NCF), uM; other: purified SHV-12; nitrocefin (NCF) as reporter substrate
# T1 sequence (P0AD64 1-286 L31Q/G234S/E235K): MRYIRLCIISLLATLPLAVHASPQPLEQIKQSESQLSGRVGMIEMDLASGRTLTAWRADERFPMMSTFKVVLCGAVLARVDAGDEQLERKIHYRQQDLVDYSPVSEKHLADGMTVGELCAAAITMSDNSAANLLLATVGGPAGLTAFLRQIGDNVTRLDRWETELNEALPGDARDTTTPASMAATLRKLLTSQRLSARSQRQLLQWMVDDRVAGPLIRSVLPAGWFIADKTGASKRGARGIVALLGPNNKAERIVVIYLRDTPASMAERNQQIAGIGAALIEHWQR
# [19] = molecular target: purified class A, C and D enzymes (β-lactamases) (Klebsiella pneumoniae, UniProt Q9F663); assay: biochemical; type: biochemical
# [20] = molecular target: T2, purified class A, C and D enzymes (β-lactamases) (Pseudomonas aeruginosa, UniProt P24735); assay: biochemical; type: biochemical
# T2 construct: rows headed: Ki (Pa-AmpC, NCF), uM; other: purified Pa-AmpC; nitrocefin (NCF) as reporter substrate
# [21] = molecular target: purified class A, C and D enzymes (β-lactamases) (Klebsiella pneumoniae, UniProt Q6XEC0); assay: biochemical; type: biochemical
# [22] = molecular target: purified class A, C and D enzymes (β-lactamases) (Escherichia coli, UniProt Q9L5C7); assay: biochemical; type: biochemical
# AB1054 OXA-23 = assay: Meropenem potentiation (MPC@8), strain AB1054 OXA-23; type: cell-based, Acinetobacter baumannii
# KP1086 OXA-48 = assay: Biapenem potentiation (MPC@1), strain KP1086 OXA-48; type: cell-based; conditions: minimum BLI concentration inhibiting growth with biapenem 1 μg/mL; tested up to 40 μg/mL
# Protocol: as §2
# [23] = minimum BLI concentration inhibiting growth with aztreonam 4 μg/mL, tested up to 40 μg/mL
# purified class A, C and D enzymes (β-lactamases) (Escherichia coli, UniProt Q9L5C7), sequence (Q9L5C7 entry or part of it): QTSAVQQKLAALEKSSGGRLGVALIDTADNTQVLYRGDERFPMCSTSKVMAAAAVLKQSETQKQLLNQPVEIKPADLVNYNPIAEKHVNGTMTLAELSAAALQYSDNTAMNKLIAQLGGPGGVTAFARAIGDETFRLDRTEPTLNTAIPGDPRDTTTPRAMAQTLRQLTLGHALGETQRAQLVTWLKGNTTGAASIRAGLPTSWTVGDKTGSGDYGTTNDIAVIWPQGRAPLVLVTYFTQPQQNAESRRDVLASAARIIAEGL
# purified class A, C and D enzymes (β-lactamases) (Enterobacter cloacae, UniProt P05364), sequence (P05364 21-381): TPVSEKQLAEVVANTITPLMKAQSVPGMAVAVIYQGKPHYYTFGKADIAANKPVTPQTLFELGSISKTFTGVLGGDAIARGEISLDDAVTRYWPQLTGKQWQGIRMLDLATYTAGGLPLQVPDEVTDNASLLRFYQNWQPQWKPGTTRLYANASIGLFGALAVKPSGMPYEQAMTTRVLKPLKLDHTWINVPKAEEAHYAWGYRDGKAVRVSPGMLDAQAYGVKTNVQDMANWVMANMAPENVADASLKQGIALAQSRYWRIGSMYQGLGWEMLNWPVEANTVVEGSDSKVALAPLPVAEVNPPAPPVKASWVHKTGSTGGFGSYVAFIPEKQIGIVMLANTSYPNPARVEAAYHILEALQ
# T2 sequence (P24735 whole entry): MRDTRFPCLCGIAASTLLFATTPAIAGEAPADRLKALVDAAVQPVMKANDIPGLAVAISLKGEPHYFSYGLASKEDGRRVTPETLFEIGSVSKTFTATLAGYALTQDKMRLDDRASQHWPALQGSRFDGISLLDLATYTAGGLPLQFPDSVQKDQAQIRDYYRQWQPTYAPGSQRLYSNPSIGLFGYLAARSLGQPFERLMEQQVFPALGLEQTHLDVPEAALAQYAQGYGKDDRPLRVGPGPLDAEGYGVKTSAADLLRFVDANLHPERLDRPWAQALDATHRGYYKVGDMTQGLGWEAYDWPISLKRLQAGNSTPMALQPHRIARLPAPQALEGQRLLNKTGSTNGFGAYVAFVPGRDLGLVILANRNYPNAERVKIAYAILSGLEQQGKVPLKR
compound,measurement,setting,value
"CC1(C)[C@H](NC(=O)/C(=N\OCC(=O)O)c2csc(N)n2)C(=O)N1OS(=O)(=O)O [Tigemonam, reference compound]",Tigemonam MIC,ec302 TEM-10 [1],>64 µg/mL
same,Tigemonam MIC,KP1005 CTX-M-14 [2],>64 µg/mL
same,Tigemonam MIC,EC1010 CMY-6 [3],16 µg/mL
same,Tigemonam MIC,ECL1002 [4],32 µg/mL
same,Tigemonam MIC,ec308 SHV-5 [5],>64 µg/mL
same,Tigemonam MIC,KP1010 SHV-12 [6],>64 µg/mL
same,Tigemonam MIC,KP1009 CTX-M-15 [7],>64 µg/mL
"C[C@H]1[C@H](NC(=O)/C(=N\OC(C)(C)C(=O)O)c2csc(N)n2)C(=O)N1S(=O)(=O)O [Aztreonam, reference compound]",MIC,ec302 TEM-10 [8]; read-out: Aztreonam MIC,128 µg/mL
same,MIC,KP1010 SHV-12 [9]; read-out: Aztreonam MIC,64 µg/mL
same,MIC,KP1005 CTX-M-14 [10],> 128 µg/mL
same,MIC,ec308 SHV-5 [11]; read-out: Aztreonam MIC,> 128 µg/mL
same,MIC,KP1004 KPC-2 [12]; read-out: Aztreonam MIC,> 128 µg/mL
same,MIC,EC1010 CMY-6 [13]; read-out: Aztreonam MIC,> 128 µg/mL
same,MIC,KP1009 CTX-M-15 [14]; read-out: Aztreonam MIC,> 128 µg/mL
"COc1ccc2c(c1C(=O)[O-])O[B-](O)(O)CC2.[Na+].[Na+] [Compound 7, DISODIUM; 4,4-DIHYDROXY-8-METHOXY-5-OXA-4-BORANUIDABICYCLO[4.4.0]DECA-1(6),7,9-TRIENE-7-CARBOXYLATE]",PAM1032/KPC-2 Biapenem MPC64,PAM1032/KPC-2,2.5
same,AZT MPC4 TEM-10 ec302,ec302 TEM-10 [8]; [23],X (X = MPC@4 ≤ 5 μg/mL)
same,AZT MPC4 SHV-12 KP1010,KP1010 SHV-12 [9],X (key: X = MPC@4 ≤ 5 μg/mL; Y = 5 μg/mL < MPC@4 ≤ 20 μg/mL; Z = MPC@4 > 20 μg/mL)
same,AZT MPC4 SHV-5 ec308,ec308 SHV-5 [11]; [23],X (X = MPC@4 ≤ 5 μg/mL)
same,AZT MPC4 KPC-2 KP1004,KP1004 KPC-2 [12],X (key: X = MPC@4 ≤ 5 μg/mL; Y = 5 μg/mL < MPC@4 ≤ 20 μg/mL; Z = MPC@4 > 20 μg/mL)
same,AZT MPC4 CMY-6 EC1010,EC1010 CMY-6 [13],X (key: X = MPC@4 ≤ 5 μg/mL; Y = 5 μg/mL < MPC@4 ≤ 20 μg/mL; Z = MPC@4 > 20 μg/mL)
same,MPM MPC8 AB1053 OXA-72,AB1053 OXA-72,X (X = MPC@1 ≤ 5 μg/mL)
same,AZT MPC4 ECL1002,ECL1002 [15],X (X = MPC@4 ≤ 5 μg/mL)
same,TIG MPC4 CTX-M-14 KP1005,KP1005 CTX-M-14 [2],X (key: X = MPC@4 ≤ 5 μg/mL; Y = 5 μg/mL < MPC@4 ≤ 20 μg/mL; Z = MPC@4 > 20 μg/mL)
same,BPM MPC1 KP1004 KPC-2,KP1004 KPC-2 [16],X (X = MPC@1 ≤ 5 μg/mL)
same,AZT MPC4 CTX-M-15 KP1009,KP1009 CTX-M-15 [14]; [23],X (X = MPC@4 ≤ 5 μg/mL)
same,PAM1154/KPC-2 Biapenem MPC64,PAM1154/KPC-2,0.6
same,Ki,biochemical,< 100 nM
same,"Ki (P99, NCF), uM",[17],X (key: X = Ki ≤ 0.1 μM; Y = 0.1 μM < Ki ≤ 1 μM; Z = Ki > 1 μM)
same,Ki,[18],< 100 nM
same,"Ki (KPC-2, NCF), uM",[19],X (key: X = Ki ≤ 0.1 μM; Y = 0.1 μM < Ki ≤ 1 μM; Z = Ki > 1 μM)
same,Ki,[20],< 100 nM
same,"Ki (OXA-48, NCF), uM",[21],X (key: X = Ki ≤ 0.1 μM; Y = 0.1 μM < Ki ≤ 1 μM; Z = Ki > 1 μM)
same,"Ki (CTX-M-14, NCF), uM",[22],X (key: X = Ki ≤ 0.1 μM; Y = 0.1 μM < Ki ≤ 1 μM; Z = Ki > 1 μM)
same,MPM MPC8 AB1054 OXA-23,AB1054 OXA-23,X (key: X = MPC@1 ≤ 5 μg/mL; Y = 5 μg/mL < MPC@1 ≤ 20 μg/mL; Z = MPC@1 > 20 μg/mL)
same,BPM MPC1 OXA-48 KP1086,KP1086 OXA-48,X (X = MPC@1 ≤ 5 μg/mL)

# Source: patent US10618918B2, “Substituted boronic acids as antimicrobials” (priority 2015, dated 2020)
